In PubChem BioAssay AID2060603 (Molecular Pharmacology Branch, DTP, NCI, 2025):

Test system: 422866-222-R5-J1-PDC spheroid viability
Assay: Anticancer human tumor 422866-222-R5-J1-PDC patient-derived pancreatic adenocarcinoma cell line growth inhibition [CLK]
Conditions: spheroids with HUVEC and MSC; for IC50: curve of first compound; for viability, T/C: stronger effect = lower value
Summary of the method: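 Patient-derived tumor cells grown as complex spheroids with HUVEC endothelial cells and mesenchymal stem cells, treated with drug combinations. Concentrations descend in half-log steps from near clinical Cmax, or from 10 microM if Cmax unknown.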

[1] = second compound 0.0316 µM, first compound 0.0316 µM
[2] = second compound 0.0316 µM, first compound 0.1 µM
[3] = second compound 0.0316 µM, first compound 0.316 µM
[4] = second compound 0.0316 µM, first compound 1 µM
[5] = second compound 0.1 µM, first compound 0.0316 µM
[6] = second compound 0.1 µM, first compound 0.1 µM
[7] = second compound 0.1 µM, first compound 0.316 µM
[8] = second compound 0.1 µM, first compound 1 µM
[9] = second compound 0.316 µM, first compound 0.0316 µM
[10] = second compound 0.316 µM, first compound 0.1 µM
[11] = second compound 0.316 µM, first compound 0.316 µM
[12] = second compound 0.316 µM, first compound 1 µM
[13] = second compound 1 µM, first compound 0.0316 µM
[14] = second compound 1 µM, first compound 0.1 µM
[15] = second compound 1 µM, first compound 0.316 µM
[16] = second compound 1 µM, first compound 1 µM
[17] = second compound 3.16 µM, first compound 0.0316 µM
[18] = second compound 3.16 µM, first compound 0.1 µM
[19] = second compound 3.16 µM, first compound 0.316 µM
[20] = second compound 3.16 µM, first compound 1 µM
[21] = second compound 10 µM, first compound 0.0316 µM
[22] = second compound 10 µM, first compound 0.1 µM
[23] = second compound 10 µM, first compound 0.316 µM
[24] = second compound 10 µM, first compound 1 µM
[25] = second compound 0.0316 µM, first compound 0.00316 µM
[26] = second compound 0.0316 µM, first compound 0.01 µM
[27] = second compound 0.1 µM, first compound 0.00316 µM
[28] = second compound 0.1 µM, first compound 0.01 µM
[29] = second compound 0.316 µM, first compound 0.00316 µM
[30] = second compound 0.316 µM, first compound 0.01 µM
[31] = second compound 1 µM, first compound 0.00316 µM
[32] = second compound 1 µM, first compound 0.01 µM
[33] = second compound 3.16 µM, first compound 0.00316 µM
[34] = second compound 3.16 µM, first compound 0.01 µM
[35] = second compound 10 µM, first compound 0.00316 µM
[36] = second compound 10 µM, first compound 0.01 µM
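Further: spheroids exposed to agents for seven days before readout.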

CC(Nc1ccc2c(c1)OCCn1cc(N3C(=O)OCC3C(F)F)nc1-2)C(N)=O (stereo unspecified) + CN1CCN(c2cc(C(=O)Nc3cc4cc(-c5cnn(C)c5)ccc4cn3)ccn2)CC1
IC50 (second compound 0.0316 µM): 0.265 µM | IC50 (second compound 0.1 µM): 0.389 µM | IC50 (second compound 0.316 µM): 0.307 µM | IC50 (second compound 1 µM): < 0.0316 µM | IC50 (second compound 3.16 µM): < 0.0316 µM | IC50 (second compound 10 µM): < 0.0316 µM | viability, T/C [1]: 81.1% | viability, T/C [2]: 78.1% | viability, T/C [3]: 44.5% | viability, T/C [4]: 37.3% | viability, T/C (second compound 0.0316 µM, first compound 3.16 µM): 34% | viability, T/C (second compound 0.0316 µM, first compound 10 µM): 27% | viability, T/C [5]: 103% | viability, T/C [6]: 68.3% | viability, T/C [7]: 55.3% | viability, T/C [8]: 40.5% | viability, T/C (second compound 0.1 µM, first compound 3.16 µM): 33.4% | viability, T/C (second compound 0.1 µM, first compound 10 µM): 31.8% | viability, T/C [9]: 88.7% | viability, T/C [10]: 63.1% | viability, T/C [11]: 50% | viability, T/C [12]: 42.6% | viability, T/C (second compound 0.316 µM, first compound 3.16 µM): 36.5% | viability, T/C (second compound 0.316 µM, first compound 10 µM): 34.3% | viability, T/C [13]: 27.5% | viability, T/C [14]: 29.1% | viability, T/C [15]: 25.9% | viability, T/C [16]: 22.4% | viability, T/C (second compound 1 µM, first compound 3.16 µM): 21.3% | viability, T/C (second compound 1 µM, first compound 10 µM): 18.6% | viability, T/C [17]: 9.59% | viability, T/C [18]: 11% | viability, T/C [19]: 11.1% | viability, T/C [20]: 10.5% | viability, T/C (second compound 3.16 µM, first compound 3.16 µM): 13.8% | viability, T/C (second compound 3.16 µM, first compound 10 µM): 12.3% | viability, T/C [21]: 2.29% | viability, T/C [22]: 1.76% | viability, T/C [23]: 2.37% | viability, T/C [24]: 1.83% | viability, T/C (second compound 10 µM, first compound 3.16 µM): 3.35% | viability, T/C (second compound 10 µM, first compound 10 µM): 2.02%

CCN1CCN(Cc2ccc(Nc3ncc(F)c(-c4cc(F)c5nc(C)n(C(C)C)c5c4)n3)nc2)CC1 + CN1CCN(c2cc(C(=O)Nc3cc4cc(-c5cnn(C)c5)ccc4cn3)ccn2)CC1
IC50 (second compound 0.0316 µM): > 1 µM | IC50 (second compound 0.1 µM): > 1 µM | IC50 (second compound 0.316 µM): > 1 µM | IC50 (second compound 1 µM): < 0.00316 µM | IC50 (second compound 3.16 µM): < 0.00316 µM | IC50 (second compound 10 µM): < 0.00316 µM | viability, T/C [25]: 110% | viability, T/C [26]: 101% | viability, T/C [1]: 89% | viability, T/C [2]: 88.8% | viability, T/C [3]: 90.8% | viability, T/C [4]: 110% | viability, T/C [27]: 122% | viability, T/C [28]: 113% | viability, T/C [5]: 93.8% | viability, T/C [6]: 85.5% | viability, T/C [7]: 72.5% | viability, T/C [8]: 107% | viability, T/C [29]: 103% | viability, T/C [30]: 84.9% | viability, T/C [9]: 89% | viability, T/C [10]: 72.3% | viability, T/C [11]: 69.4% | viability, T/C [12]: 84.5% | viability, T/C [31]: 34.6% | viability, T/C [32]: 37.7% | viability, T/C [13]: 34.4% | viability, T/C [14]: 41.9% | viability, T/C [15]: 53.5% | viability, T/C [16]: 49.8% | viability, T/C [33]: 8.29% | viability, T/C [34]: 8.47% | viability, T/C [17]: 8.82% | viability, T/C [18]: 7.58% | viability, T/C [19]: 9.92% | viability, T/C [20]: 13.5% | viability, T/C [35]: 1.95% | viability, T/C [36]: 2.42% | viability, T/C [21]: 1.51% | viability, T/C [22]: 1.89% | viability, T/C [23]: 2.56% | viability, T/C [24]: 1.96%

COc1c(OCCCN2CCOCC2)ccc2c3n(c(=NC(=O)c4cnc(N)nc4)nc12)CCN3 + CN1CCN(c2cc(C(=O)Nc3cc4cc(-c5cnn(C)c5)ccc4cn3)ccn2)CC1
IC50 (second compound 0.0316 µM): 0.022 µM | IC50 (second compound 0.1 µM): 0.0263 µM | IC50 (second compound 0.316 µM): 0.0226 µM | IC50 (second compound 1 µM): < 0.00316 µM | IC50 (second compound 3.16 µM): < 0.00316 µM | IC50 (second compound 10 µM): < 0.00316 µM | viability, T/C [25]: 99.3% | viability, T/C [26]: 65.7% | viability, T/C [1]: 43.5% | viability, T/C [2]: 33.2% | viability, T/C [3]: 28.9% | viability, T/C [4]: 33.4% | viability, T/C [27]: 92.2% | viability, T/C [28]: 73.2% | viability, T/C [5]: 46.9% | viability, T/C [6]: 31.6% | viability, T/C [7]: 32.2% | viability, T/C [8]: 34.5% | viability, T/C [29]: 92.8% | viability, T/C [30]: 63% | viability, T/C [9]: 46.1% | viability, T/C [10]: 35.5% | viability, T/C [11]: 30.3% | viability, T/C [12]: 37.6% | viability, T/C [31]: 33.7% | viability, T/C [32]: 33.4% | viability, T/C [13]: 21.6% | viability, T/C [14]: 25.6% | viability, T/C [15]: 18% | viability, T/C [16]: 23.8% | viability, T/C [33]: 9.85% | viability, T/C [34]: 13.6% | viability, T/C [17]: 11.9% | viability, T/C [18]: 10.2% | viability, T/C [19]: 10.4% | viability, T/C [20]: 9.8% | viability, T/C [35]: 3.74% | viability, T/C [36]: 4.24% | viability, T/C [21]: 3.81% | viability, T/C [22]: 1.77% | viability, T/C [23]: 5.18% | viability, T/C [24]: 3.72%
